According to patent publication US11034725B2, “Compositions and methods for treating cardiovascular disease” (Genentech, Inc., priority 2016, dated 2021):
Where two headings read alike, the source gives them in different places.

Key:
[1] = target: T1, PCSK9Δhelix (Homo sapiens, UniProt Q8NBP7); test: PCSK9Δhelix/Ab20 TR-FRET binding assay
T1 construct: Human PCSK9 construct M1-Q692 with an engineered TEV site (residue deletion Y166, R167); made in house; host or cells: CHO

[2] = target: PCSK9 (Homo sapiens, UniProt Q8NBP7); test: PCSK9/EGF(A) TR-FRET binding assay; conditions: TR-FRET, Example 7; read-out: PCSK9/EGF(A) IC50
[3] = target: T1, PCSK9Δhelix; test: Surface plasmon resonance biosensor-based affinity analysis (Example 4); format: binding; conditions: Table 7, Target PCSK9Δhelix, SPR at 20° C.; read-out: Kd
[4] = test system: His-EGF(A)-Fc; test: His-EGF(A)-Fc TR-FRET counterscreen; conditions: counterscreen, Example 7
[5] = target: T1, PCSK9Δhelix; test: SPR affinity measurements of peptide binding (Example 8); conditions: for Kd: Table 10, binding to PCSK9Δhelix
Method: A Biacore™ T100 or Biacore™ 8K was adjusted to 20° C. The system was primed into assay buffer which consisted of 25 mM HEPES, pH 7.5, 0.15 M NaCl, 0.005% (v/v) Tween® 20, 0.2 mM tris(2-carboxyethyl)phosphine and optionally contained 0.1% (w/v) carboxymethylated dextran (average MW 10 kDa) and 0.2% (w/v) PEG (average MW 3450 Da) in order to reduce potential non-specific binding. Peptides were assayed by capturing fresh PCSK9 or PCSK9Δhelix after each binding regeneration cycle by exploiting a histidine tag and an NTA-sensor chip. The surface was charged with (His)8-tagged PCSK9 (approximately 800 RU captured). […] Compound 19 and Compound 20 were assayed in six serial two-fold dilutions from 100 nM to 3.1 nM. All peptides were analyzed in duplicate by serial injection (50 μL/min for 1 min) of peptide dilution from low to high concentration. The surface was then stripped of target by injecting 0.5 M EDTA, pH 8.0. This sequence was repeated for each peptide binding cycle and blank control cycles.
All SPR data was recorded in duplicate for five, or more serial dilutions, except for the two fusion peptides, which produced extremely low fitting error. Multicycle data (i.e. separate curves for each concentration) and single cycle data (i.e. single curve with serial injection of each concentration) were double referenced and fitted to an interaction model using BIAevaluation software. Peptide binding to PCSK9 produced deviations from a simple 1:1 binding interaction model that required application of a two-state model for determination of Kd while interactions with PCSK9Δhelix conformed well to simple 1:1 binding. Kinetic curvature was poorly defined for rapidly dissociating peptides and in these cases Kd was estimated from a steady-state dose response plot. Kd values were reported with associated standard error, a measure of confidence in that parameter value.

[6] = target: T2, PCSK9-R167A:R215A:R218A (PCSK9-AAA) (Homo sapiens, UniProt Q8NBP7, R167A/R215A/R218A); test: FXIa cleavage assay of the P′ helix of PCSK9-AAA; format: biochemical; conditions: immunoblot with anti-N-terminal peptide antibody
T2 construct: made in house; host or cells: CHO (transient)
Method: The PCSK9-AAA mutant (2.6 μM) was incubated with 50 nM FXIa (Haematologic Technologies) in Tris buffer (50 mM Tris, 150 mM NaCl, 4 mM CaCl2, pH 8.0) at room temperature for the indicated time periods. […] After SDS-PAGE of the samples, proteins were transferred to a nitrocellulose membrane using iBlot (Invitrogen). Proteins were then probed with a polyclonal rabbit antibody (1:3000) raised against the PCSK9 N-terminal peptide (^153[…]^168 (SEQ ID NO: 5)), followed with HRP-conjugated donkey anti-rabbit antibody (1:5000, GE Healthcare) using iBind (Invitrogen). PCSK9 signals were detected by ECL (GE Healthcare) and visualized by autoradiography.
Proteins were then probed with a polyclonal rabbit antibody (1:3000) raised against the PCSK9 N-terminal peptide (^153[…]^168 (SEQ ID NO: 5)), followed with HRP-conjugated donkey anti-rabbit antibody (1:5000, GE Healthcare) using iBind (Invitrogen). PCSK9 signals were detected by ECL (GE Healthcare) and visualized by autoradiography.

[7] = TR-FRET, Example 7, read-out: PCSK9Δhelix/Ab20 IC50
[8] = Table 10, average ±S.D. of three experiments, read-out: Ab20 IC50

Ac-DLMPWNLVRIGLAR-NH2 [Compound 55] was tested, and the IC50 [1, 7] was 9.7 µM, the IC50 [2] was greater than 50 µM and the Kd [3] was 2.8 µM. For the same substance, the IC50 [4] was greater than 50 µM.
Work on Ac-DLMPWNLVRIGLLR-NH2 [Compound 35] yielded an IC50 [1, 7] of 4.8 µM, an IC50 [1, 8] of 7.9 ± 0.1 µM and an IC50 [2] greater than 50 µM. It also gave a Kd [5] of 1.38 µM and an IC50 [4] greater than 50 µM.
Work on Ac-LMPWNLVRIGLLR-NH2 [Compound 50] yielded an IC50 [1, 7] of 2.66 µM, an IC50 [1, 8] of 3.6 ± 0.2 µM and an IC50 [2] greater than 50 µM. It also gave a Kd [3] of 1.6 µM, a Kd [5] of 0.47 µM and an IC50 [4] greater than 50 µM.
Ac-MPWNLVRIGLLR-NH2 [Compound 51] gave an IC50 [1, 7] of 4.69 µM, an IC50 [1, 8] of 6.6 ± 0.3 µM and an IC50 [2] greater than 50 µM. For the same substance, the Kd [3] was 2.7 µM, the Kd [5] was 1.4 µM and the IC50 [4] was greater than 50 µM.
“Ac-TVATSAEEYLLWV-NH2 [Pep2-8-ctrl, reference compound]” was tested, and the “effect on FXIa-mediated cleavage of the P′ helix of PCSK9-AAA” value (“effect … of the P′ helix of PCSK9-AAA” below) [6] was “did not prevent cleavage” and the “effect … of the P′ helix of PCSK9-AAA” value ([6]; listed as control peptide) was “did not inhibit cleavage”.
Substance Ac-WNLVRIGLLR-NH2 [Compound 53] has an IC50 [1, 7] of 33.1 µM, an IC50 [1, 8] of 52.4 ± 3.4 µM and an IC50 [2] greater than 50 µM. For the same substance, the Kd [3] was 33.8 µM, the Kd [5] was 14 µM and the “reduction of binding affinity” value ([5]; Table 10, elimination of Pro4) was 10 fold. For the same substance, the IC50 [4] was greater than 50 µM.
For “EGFA-Fc: Fc fusion protein of the EGFA domain of LDLR”, the “effect … of the P′ helix of PCSK9-AAA” value [6] was “largely prevented cleavage”.
